# Data: US7504411B2, “2,3,6-Trisubstituted-4-pyrimidone derivatives” (Mitsubishi Tanabe Pharma Corporation, priority 2003, dated 2009)
# Target: T1, bovine cerebral TPK1 (Bos taurus, UniProt A0A3Q1MT31)
# T1 construct: Phosphorylation by Bovine Cerebral TPK1; from tissue; host or cells: bovine brain (cerebrum)
# Test: Inhibitory activity against P-GS1 phosphorylation by bovine cerebral TPK1
# Type: biochemical
# Conditions: 41.7 μM [γ-32P]ATP, 25° C., 2 hours
# Experimental: Inhibitory Activity of the Medicament of the Present Invention against P-GS1 Phosphorylation by Bovine Cerebral TPK1
# A mixture containing 100 mM MES-sodium hydroxide (pH 6.5), 1 mM magnesium acetate, 0.5 mM EGTA, 5 mM β-mercaptoethanol, 0.02% Tween 20, 10% glycerol, 12 μg/ml P-GS1, 41.7 μM [γ-^32P] ATP (68 kBq/ml), bovine cerebral TPK1 and a compound shown in Table (a final mixture contained 1.7% DMSO deriving from a solution of a test compound prepared in the presence of 10% DMSO) was used as a reaction system. The phosphorylation was started by adding ATP, and the reaction was conducted at 25° C. for 2 hours, and then stopped by adding 21% perchloric acid on ice cooling. The reaction mixture was centrifuged at 12,000 rpm for 5 minutes and adsorbed on P81 paper (Whatmann), and then the paper was washed four times with 75 mM phosphoric acid, three times with water and once with acetone. The paper was dried, and the residual radioactivity was measured using a liquid scintillation counter.
# T1 sequence (A0A3Q1MT31 1-419): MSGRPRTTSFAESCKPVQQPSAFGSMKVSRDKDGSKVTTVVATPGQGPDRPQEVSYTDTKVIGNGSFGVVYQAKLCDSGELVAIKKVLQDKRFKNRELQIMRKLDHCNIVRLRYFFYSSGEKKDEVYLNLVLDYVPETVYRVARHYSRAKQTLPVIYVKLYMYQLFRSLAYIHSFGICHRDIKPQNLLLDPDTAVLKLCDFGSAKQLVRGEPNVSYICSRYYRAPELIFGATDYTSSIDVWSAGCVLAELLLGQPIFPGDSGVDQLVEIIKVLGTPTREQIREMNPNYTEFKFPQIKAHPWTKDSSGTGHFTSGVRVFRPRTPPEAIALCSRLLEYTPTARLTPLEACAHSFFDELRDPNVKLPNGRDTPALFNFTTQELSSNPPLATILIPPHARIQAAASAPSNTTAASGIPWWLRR
row,IC50,Compound
1,0.018 µM,Cn1c(N2CCNC(c3ccccc3)C2)nc(-c2ccncc2)cc1=O (stereo not drawn) [XA361]
2,0.23 µM,Cn1c(N2CCCC(C#N)(c3ccccc3)C2)nc(-c2ccncc2)cc1=O (stereo not drawn) [XB80]
3,0.216 µM,COc1cc(F)ccc1C1CN(c2nc(-c3ccncn3)cc(=O)n2C)CCN1Cc1ccccc1 (stereo not drawn) [YA0864]
